How the values were obtained:
[1] = tested on: fli1:EGFP zebrafish embryos (intersegmental vessel growth); assay: fli1:EGFP zebrafish embryo angiogenesis assay; format: in vivo; design: fli1:EGFP angiogenesis n (survived/tested): concentration or dose not given beside the values; settings: for minimal effective concentration: Danio rerio, lowest concentration producing an effect, compounds not producing an effect shown at the highest evaluated concentration; for fli1:EGFP angiogenesis n (survived/tested): embryos alive after 24 hours of exposure
Excerpt: (§1) Zebrafish embryology: The use of zebrafish embryo (Danio rerio) bioassays as a preclinical model in the classification of novel compounds has increased in recent years due to several factors including; low cost, ease of maintenance, speed of embryonic development, transparency of the embryos and genetic conservation between zebrafish and humans (Howe et al., Nature 2013; 496:498; Therapontos et al., PNAS 2009, 106:8573; Mahony et al., PNAS 2013, 110:12703; Beedie et al., Oncotarget 2016, 7(22):33237; Beedie et al., Mol. Cancer Ther. 2015, 14(10):2228). Two established zebrafish reporter lines were used—the fli1:EGFP line, where the fli1 promoter drives expression of enhanced green fluorescent protein within the developing vasculature (Lawson et al., 2002), and the Tg(mpo::EGFP) line (also known as mpo:GFP), which expresses green fluorescent protein via the neutrophil specific myeloperoxidase promoter (Renshaw et al., Blood 2006, 108:3976). The use of these zebrafish transgenic reporter lines allows for the identification of potential anti-angiogenic and anti-inflammatory compounds respectively, and both have been used previously to successfully classify the action of thalidomide analogs (Therapontos et al., 2009; Mahony et al., 2013; Beedie et al., Oncotarget 2016, 7(22):33237; Beedie et al., Mol. Cancer Ther. 2015, 14(10):2228). Zebrafish embryos were treated with analogs as previously described (Mahony et al., 2013). Briefly, fli1:EGFP embryos were collected and embryos were allowed to develop for 24 hours. Embryos were dechorionated manually and exposed to test compounds or vehicle control for a further 24 hours, imaged and analyzed for intersegmental vessel (ISV) growth. At 24 hours post fertilisation (hpf) the ISVs were ideal to study to visualize and analyze the actions of compounds on angiogenesis. At this time point ISVs were rapidly forming beneath the developing head, over the body and had yet to form in the tail (Lawson and Weinstein, Developmental Biology 2002, 248:307; Therapontos and Vargesson, Developmental Dynamics 2010, 239:2761). Additionally, these sprouts would go on to form the bilateral dorsal longitudinal anastomotic vessels. By treating before this fusion and formation occurs, the effect of each compound on the individual vessels as well as overall patterning structural integrity (Isogai et al., Development 2003, 130:5281) could be determined. Tg(mpo::EGFP) were tail fin clipped as previously detailed (Renshaw et al., 2006; Mahony et al., 2013; Beedie et al., Oncotarget 2016, 7(22):33237; Beedie et al., Mol. Cancer Ther. 2015, 14(10):2228) and incubated with test compounds or vehicle control at 72 hours post fertilization. Fish were imaged at 24 hours and the number of migratory neutrophils present at the wound site were counted. Compounds inducing an at least 50% reduction of neutrophils to the wound site were considered to have anti-inflammatory properties in this system. All larvae were assessed for viability and morphological integrity.
To determine if the thalidomide analogs had any effect on angiogenesis, fli1:EGFP embryos (Lawson and Weinstein, Developmental Biology 2002, 248:307-318) were exposed to either vehicle or a compound of interest, over a range of concentrations and over a range of time points starting at 24 hpf. Images were obtained at three time points over 24 hours after exposure to the compounds. The best concentration and time point were selected. CPS49, a compound that is chemically and structurally similar to thalidomide breakdown products, and is tetrafluorinated (which adds stability and bioactivity to the compound) and that causes severe limb defects in chicken embryos, was used as a positive control. The embryos were imaged at 48 hpf (FIGS. 3A3L) and analyzed for both vessel formation and the extent of growth of the vasculature. […]

[2] = tested on: mpo:GFP zebrafish embryos (neutrophil migration to the wound site); assay: mpo:GFP zebrafish fin-clip neutrophil migration (inflammation) assay; format: in vivo; design: mpo:GFP inflammation n (survived/tested): concentration or dose not given beside the values; settings: for minimal effective concentration: Danio rerio, Neutrophil, lowest concentration producing an effect, compounds not producing an effect shown at the highest evaluated concentration; for mpo:GFP inflammation n (survived/tested): embryos survived/tested at the concentration given
Excerpt: as §1
To assess the immunomodulatory effects of the thalidomide analogs, the mpo:gfp transgenic zebrafish line (Renshaw et al., Blood 2006, 108:3976-3978) was utilized because it is an accepted model of inflammation, and can be used to test the effect of anti-inflammatory agents. These embryos express GFP-tagged myeloperoxidase, where green fluorescence marks the neutrophil cells involved in the inflammatory response process, for example following injury, from 72 hours post fertilization (Renshaw et al., 2006; Mahony et al., 2013; Beedie et al., Oncotarget 2016, 7(22):33237). At 72 hpf the dorsal third of the tail fin was removed and the embryos were immersed in the desired compound or vehicle (FIGS. 5A-5C). The embryos were examined for the effect on the inflammatory response quantified as an induction and migration of neutrophils to the wound site 24 hours later.

TNF-α protein = TNF-α protein level (ELISA) in LPS-challenged RAW 264.7 cells; format: cell-based, mouse; design: key: NS=not significant; a “+” sign=anti-inflammatory or increased cell numbers; a “−” sign=cell toxicity or pro-inflammatory; settings: LPS 30 or 60 ng/mL, 24 h
Description: Nitrite levels in the culture media were measured by use of the Griess Reagent System (Promega, Madison, Wis.), following the manufacturer's protocol. The O.D. of unknown samples was read at 520 nm λ, compared to a sodium nitrite standard curve (1.5 μM to 100 μM) and nitrite measured media concentrations expressed as μM units. As the lowest nitrite concentration on the Griess Reagent System standard curve was 1.5 μM, this was chosen as the effective cutoff for defining measurable nitrite concentrations. TNF-α protein levels were measured by use of an ELISA specific for mouse TNF-α protein (BioLegend, San Diego, Calif.) and are expressed as a % change from their appropriate control or as pg/ml.
(§2) RAW 264.7 cells obtained from ATCC (Manassas, Va., USA) were grown in DMEM media supplemented with 10% FCS, penicillin 100 μg/ml and streptomycin 100 μg/ml, and maintained at 37° C. and 5% CO2. Cells were seeded in 24 well plates and, 24 hours later, were utilized in studies. One hour prior to the initiation of any study, the seeding media was replaced with fresh media (1 mL), and the cells were allowed to equilibrate at 37° C. and 5% CO2.
(§3) RAW 264.7 cells were challenged with LPS (Sigma, St Louis, Mo.: serotype 055:B5) from at a final concentration of 30 or 60 ng/mL. This concentration of LPS in RAW 264.7 cells induces a sub-maximal rise in both TNF-alpha and nitrite levels without a loss in cellular viability. This sub-maximal rise is useful for assessing whether the addition of an experimental drug can either lower or further raise levels of TNF-α and nitrite. Twenty four hours following the addition of LPS, conditioned media was harvested and analyzed for quantification of secreted TNF-α protein and nitrite levels. Fresh media was replaced into the wells and cell viability was then assessed.
(§4) Thalidomide and analogs were prepared in tissue culture grade DMSO (Sigma). RAW 264.7 cells were pretreated with thalidomide, analogues or vehicle one hour prior to a challenge with LPS. The effects of various concentrations of thalidomide analogues were assessed. All compounds were synthesized to a chemical purity of >99.5%, as assessed by chemical characterization by a combination of 1H NMR, 13C NMR and GC/MS analyses (Bruker AC-300 spectrometer, together with elemental analyses (Atlantic Microlab, Inc., Norcross, Ga.).

RAW 264.7 cells = assay: Cell viability (CellTiter 96 AQueous One) of LPS-challenged RAW 264.7 cells; format: cell-based, mouse; design: key: NS=not significant; a “+” sign=anti-inflammatory or increased cell numbers; a “−” sign=cell toxicity or pro-inflammatory
Description: The CellTiter 96® AQueous One Solution Cell Proliferation Assay (Promega, Madison, Wis.) is routinely used as an assay of cell proliferation, and was used according to the manufacturer's recommendations. Changes in cellular health status are determined by use of indirect measures related to the formation of a colored tetrazolium dye product that can be measured spectrophotometrically at 490 nm λ. […] Optical densities (expressed as O.D.s) were measured after various incubations.
as §2, §3, §4

Row | SMILES | minimal effective concentration [1] [µg/mL] | fli1:EGFP angiogenesis n (survived/tested) [1] | minimal effective concentration [2] [µg/mL] | mpo:GFP inflammation n (survived/tested) [2] | further results
1 | O=C1NC(=S)CCC1N1C(=O)c2ccccc2C1=S (stereo not drawn) [Compound 2, 2,3-dihydro-2-(2-oxo-6-thioxo-3-piperidinyl)-3-thioxo-1H-isoindol-1-one] | 10 | 21/24 | 10 | 26/30 | anti-inflammatory activity (inhibition of neutrophil migration) ([2]; in words): significant anti-inflammatory action
2 | O=C1NC(=S)CCC1N1C(=O)c2cccc(O)c2C1=O (stereo not drawn) [Compound 14] | 10 | 7/23 | 10 | 14/24 | 
3 | O=C1NC(=S)CCC1N1C(=O)c2ccc(O)cc2C1=O (stereo not drawn) [Compound 17] | 15 | 26/50 | 10 | 5/5 | 
4 | CC(=O)Oc1ccc2c(c1)C(=O)N(C1CCC(=O)NC1=O)C2=O (stereo not drawn) [Compound 18] | 50 | 24/43 | 50 | 14/14 | 
5 | CC(=O)Oc1ccc2c(c1)C(=O)N(C1CCC(=S)NC1=O)C2=O (stereo not drawn) [Compound 19] | 1 | 13/51 | 1 | 5/12 | 
6 | O=C1CCC(N2C(=O)c3ccc(OCc4ccccc4)cc3C2=O)C(=O)N1 (stereo not drawn) [Compound 20] | 10 | 51/79 | 10 | 8/14 | 
7 | Nc1ccc2c(=O)n(C3CCC(=O)NC3=O)c(=O)oc2c1 (stereo not drawn) [Compound 24] | 50 | 13/25 | 50 | 6/6 | 
8 | Nc1cccc2c1CN(C1CCC(=S)NC1=O)C2=O (stereo not drawn) [Compound 30] | 10 | 4/8 | 10 | 10/10 | 
9 | Nc1cccc2c1CN(C1CCC(=S)NC1=O)C2=S (stereo not drawn) [Compound 32] | 100 | 21/25 | 10 | 6/15 | TNF-α (TNF-α protein; 3 μM): +; TNF-α (TNF-α protein; 10 μM): +; TNF-α (TNF-α protein; 30 μM): +; Viability (RAW 264.7 cells; 3 μM): NS; Viability (RAW 264.7 cells; 10 μM): NS; Viability (RAW 264.7 cells; 30 μM): NS
10 | O=C1CCC(N2Cc3ccc([N+](=O)[O-])cc3C2=O)C(=O)N1 (stereo not drawn) [Compound 33] | 100 | 15/21 | 10 | 4/15 | 
11 | Nc1ccc2c(c1)C(=O)N(C1CCC(=O)NC1=O)C2 (stereo not drawn) [Compound 34] | 100 | 13/20 | 100 | 7/9 | 
12 | CC(C)Nc1ccc2c(c1)C(=O)N(C1CC=CNC1=O)C2 (stereo not drawn) [Compound 46, 6-Isopropylamino-2-(3,4-dihydro-2-pyridone-3-yl)phthalimidine] | 10 | 14/30 | 10 | 24/50 | 
13 | O=C1CCC(N2Cc3ccccc3C2=O)C(=O)N1CN1C(=S)c2ccccc2C1=S (stereo not drawn) [Compound 51] | 200 | 7/25 | 1 | 4/11 | TNF-α (TNF-α protein; 1 μM): +; TNF-α (TNF-α protein; 10 μM): +; TNF-α (TNF-α protein; 30 μM): +; concentration at which anti-angiogenic activity was shown ([1]; exposure from 24 hpf, imaged at 48 hpf): 200 µg/mL; Viability (RAW 264.7 cells; 1 μM): NS; Viability (RAW 264.7 cells; 10 μM): NS; Viability (RAW 264.7 cells; 30 μM): −
14 | N=C1N/C(=N\C2CCC(=O)NC2=O)c2ccccc21 (stereo not drawn) [Compound 55] | 100 | 6/10 | 200 | 6/11 | 
15 | N=C1c2ccccc2C(=O)N1C1CCC(=O)NC1=O (stereo not drawn) [Compound 56] | 10 | 9/19 | 10 | 7/8 | 
16 | O=C1c2cccc([N+](=O)[O-])c2C(=O)N1c1nc2ccc(C(F)(F)F)cc2s1 [Compound 60] | 10 | 3/10 | 1 | 5/15 | 
